According to patent US20130190289A1, “COMPOUNDS AND METHODS FOR THE TREATMENT OR PREVENTION OF FLAVIVIRUS INFECTIONS” (priority 2010, published 2013):
Like-named read-outs stand apart in the source and are kept apart here.

Legend:
[1] = tested on: HCV replicon (genotype 1b) in Huh7 cell line ET; experiment: microbe, parasite or virus in culture; format: cell-based, HCV genotype 1b; details: Hepatitis C virus
[2] = [3H]Thymidine incorporation assay (cell toxicity); details: human
[3] = Huh-7, read-out: HCV-Replicon-(Luci-ET) 1b_IC50
[4] = Huh-7, 96 h, read-out: HCV-Replicon (Luci-ET)-1b_IC50

## C[C@@H](C(=O)NC1CCOCC1)N(c1cc(C#CC(C)(C)C)sc1C(=O)O)C(=O)[C@H]1CC[C@H](C)CC1 [Compound 19, 5-(3,3-Dimethylbut-1-ynyl)-3-[(trans-4-methylcyclohexanecarbonyl)-[(1S)-1-methyl-2-oxo-2-(tetrahydropyran-4-ylamino)ethyl]amino]thiophene-2-carboxylic acid]
[1]; [3]
  IC50: < 100 nM
[2]
  CC50 at 72 h: > 100 µM

## C[C@H]1CC[C@H](C(=O)N(CC(=O)N2CCOCC2)c2cc(C#CC3CC3)sc2C(=O)O)CC1 [Compound 128, 5-(2-cyclopropylethynyl)-3-[(trans-4-methylcyclohexanecarbonyl)-(2-morpholino-2-oxo-ethyl)amino]thiophene-2-carboxylic acid]
[1]; [4]
  IC50: < 100 nM
[2]
  CC50 at 72 h: > 100 µM

## CC[C@@H](C(=O)N(C)C1CCOCC1)N(c1cc(C#CC(C)(C)C)sc1C(=O)O)C(=O)[C@H]1CC[C@H](C)CC1 [Compound 81, 5-(3,3-Dimethylbut-1-ynyl)-3-[(trans-4-methylcyclohexanecarbonyl)-[(1S)-1-[methyl(tetrahydropyran-4-yl)carbamoyl]propyl]amino]thiophene-2-carboxylic acid]
[1]; [3]
  IC50: < 100 nM
[2]
  CC50 at 72 h: 10 to 100 µM

## C[C@@H](C(=O)N(C)CCO)N(c1cc(C#CC(C)(C)C)sc1C(=O)O)C(=O)[C@H]1CC[C@H](C)CC1 [Compound 37, 5-(3,3-Dimethylbut-1-ynyl)-3-[[(1S)-2-[2-hydroxyethyl(methyl)amino]-1-methyl-2-oxo-ethyl]-(trans-4-methylcyclohexanecarbonyl)amino]thiophene-2-carboxylic acid]
[1]; [3]
  IC50: < 100 nM
[2]
  CC50 at 72 h: > 100 µM

## CCC#Cc1cc(N(CC(=O)N2CCOCC2)C(=O)[C@H]2CC[C@H](C)CC2)c(C(=O)O)s1 [Compound 132, 5-But-1-ynyl-3-[(trans-4-methylcyclohexanecarbonyl)-(2-morpholino-2-oxo-ethyl)amino]thiophene-2-carboxylic acid]
[1]; [4]
  IC50: 100 to 1000 nM
[2]
  CC50 at 72 h: > 100 µM

## CCN1CCCC[C@H](N(C(=O)c2ccc(Cl)cc2Cl)c2cc(C#CC(C)(C)C)sc2C(=O)O)C1=O [Compound 135, (S)-5-(3,3-dimethylbut-1-ynyl)-3-[(2,4-dichlorobenzoyl)-N-(1-ethyl-2-oxoazepan-3-yl)amino]-thiophene-2-carboxylic acid]
[1]; [4]
  IC50: < 100 nM
[2]
  CC50 at 72 h: > 100 µM

## COC[C@@H](C(=O)N1CCCC1)N(C(=O)C1CCCCC1)c1cc(C#CC(C)(C)C)sc1C(=O)O [Compound 36, 3-[Cyclohexanecarbonyl-[(1S)-1-(methoxymethyl)-2-oxo-2-pyrrolidin-1-yl-ethyl]amino]-5-(3,3-dimethylbut-1-ynyl)thiophene-2-carboxylic acid]
[1]; [3]
  IC50: 100 to 1000 nM
[2]
  CC50 at 72 h: > 100 µM

## C[C@@H](C(=O)NC1CCCC1)N(c1cc(C#CC(C)(C)C)sc1C(=O)O)C(=O)[C@H]1CC[C@H](C)CC1 [Compound 18, 3-[[(1S)-2-(Cyclopentylamino)-1-methyl-2-oxo-ethyl]-(trans-4-methylcyclohexanecarbonyl)amino]-5-(3,3-dimethylbut-1-ynyl)thiophene-2-carboxylic acid]
[1]; [3]
  IC50: < 100 nM
[2]
  CC50 at 72 h: 10 to 100 µM

## C[C@H](CN(c1cc(C#CC(C)(C)C)sc1C(=O)O)C(=O)[C@H]1CC[C@H](C)CC1)C(=O)N1CCOCC1 [Compound 109, 5-(3,3-dimethylbut-1-ynyl)-3-[(trans-4-methylcyclohexanecarbonyl)-[(2R)-2-methyl-3-morpholino-3-oxo-propyl]amino]thiophene-2-carboxylic acid]
[1]; [3]
  IC50: < 100 nM
[2]
  CC50 at 72 h: > 100 µM

## CC[C@@H](C(=O)N(C)C1CCN(C)CC1)N(c1cc(C#CC(C)(C)C)sc1C(=O)O)C(=O)[C@H]1CC[C@H](C)CC1 [Compound 76, 5-(3,3-Dimethylbut-1-ynyl)-3-[(trans-4-methylcyclohexanecarbonyl)-[(1S)-1-[methyl-(1-methyl-4-piperidyl)carbamoyl]propyl]amino]thiophene-2-carboxylic acid]
[1]; [3]
  IC50: < 100 nM
[2]
  CC50 at 72 h: 10 to 100 µM

## COC(C)(C)C#Cc1cc(N(CC(=O)N2CCOCC2)C(=O)[C@H]2CC[C@H](C)CC2)c(C(=O)O)s1 [Compound 129, 5-(3-methoxy-3-methyl-but-1-ynyl)-3-[(trans-4-methylcyclohexanecarbonyl)-(2-morpholino-2-oxo-ethyl)amino]thiophene-2-carboxylic acid]
[1]; [4]
  IC50: 100 to 1000 nM
[2]
  CC50 at 72 h: > 100 µM

## C[C@H]1CC[C@H](C(=O)N(CC(=O)N2CCOCC2)c2cc(-c3ccc(Oc4ccccc4)cc3)sc2C(=O)O)CC1 [Compound 151, 3-[(trans-4-methylcyclohexanecarbonyl)-(2-morpholino-2-oxo-ethyl)amino]-5-(4-phenoxyphenyl)thiophene-2-carboxylic acid]
[1]; [4]
  IC50: 100 to 1000 nM
[2]
  CC50 at 72 h: 10 to 100 µM

## CC[C@@H](C(=O)N1CCOCC1)N(c1cc(C#CC(C)C)sc1C(=O)O)C(=O)[C@H]1CC[C@H](C)CC1 [Compound 90, 5-(3-Methylbut-1-ynyl)-3-[(trans-4-methylcyclohexanecarbonyl)-[(1S)-1-(morpholine-4-carbonyl)propyl]amino]thiophene-2-carboxylic acid]
[1]; [3]
  IC50: < 100 nM
[2]
  CC50 at 72 h: > 100 µM

## CC(CC(=O)N1CCCC1)N(c1cc(C#CC(C)(C)C)sc1C(=O)O)C(=O)[C@H]1CC[C@H](C)CC1 (relative stereo) [Compound 101, 5-(3,3-dimethylbut-1-yn-1-yl)-3-((trans)-4-methyl-N-(4-oxo-4-(pyrrolidin-1-yl)butan-2-yl)cyclohexanecarboxamido)thiophene-2-carboxylic acid]
[1]; [3]
  IC50: < 100 nM
[2]
  CC50 at 72 h: 10 to 100 µM

## CC1CN(C(=O)CN(c2cc(C#CC(C)(C)C)sc2C(=O)O)C(=O)[C@H]2CC[C@H](C)CC2)CCO1 (some centres unmarked) [Compound 26]
[1]; [3]
  IC50: < 100 nM
[2]
  CC50 at 72 h: 10 to 100 µM

## CC[C@@H](C(=O)N(C)CCO)N(c1cc(C#CC(C)(C)C)sc1C(=O)O)C(=O)[C@H]1CC[C@H](C)CC1 [Compound 77, 5-(3,3-Dimethylbut-1-ynyl)-3-[[(1S)-1-[2-hydroxyethyl(methyl)carbamoyl]propyl]-(trans-4-methylcyclohexanecarbonyl)amino]thiophene-2-carboxylic acid]
[1]; [3]
  IC50: < 100 nM
[2]
  CC50 at 72 h: > 100 µM

## CNC(=O)CN(c1cc(C#CC(C)(C)C)sc1C(=O)O)C(=O)[C@H]1CC[C@H](C)CC1 [Compound 1, 5-(3,3-dimethylbut-1-ynyl)-3-[[2-(methylamino)-2-oxo-ethyl]-(trans-4-methylcyclohexanecarbonyl)amino]thiophene-2-carboxylic acid]
[1]; [3]
  IC50: < 100 nM
[2]
  CC50 at 72 h: 10 to 100 µM

## CN1CCC[C@H](N(c2cc(C#CC(C)(C)C)sc2C(=O)O)C(=O)[C@H]2CC[C@H](C)CC2)C1=O [Compound 117, 5-(3,3-dimethylbut-1-yn-1-yl)-3-(trans-4-methyl-N—((S)-1-methyl-2-oxopiperidin-3-yl)cyclohexanecarboxamido)thiophene-2-carboxylic acid]
[1]; [3]
  IC50: < 100 nM
[2]
  CC50 at 72 h: > 100 µM

## C[C@@H](CC(=O)N1CCN(C)CC1)N(c1cc(C#CC(C)(C)C)sc1C(=O)O)C(=O)[C@H]1CC[C@H](C)CC1 [Compound 110, 5-(3,3-Dimethylbut-1-ynyl)-3-[(trans-4-methylcyclohexanecarbonyl)-[(1S)-1-methyl-3-(4-methylpiperazin-1-yl)-3-oxo-propyl]amino]thiophene-2-carboxylic acid]
[1]; [3]
  IC50: < 100 nM
[2]
  CC50 at 72 h: > 100 µM
